Legend:
Type in all cases: cell-based
IGROV1 = experiment: NCI-60 one-dose screen; details: Homo sapiens, IGROV-1; IGROV1, Ovarian Cancer panel; single dose 10^−5 M; read-out: Growth inhibition %
NCI-H460 = experiment: NCI-60 one-dose screen; details: Homo sapiens; NCI-H460, Non-small cell lung panel; single dose 10^−5 M; read-out: Growth inhibition %
SF-295 = experiment: NCI-60 one-dose screen; details: Homo sapiens; SF-295, CNS Cancer panel; single dose 10^−5 M; read-out: Growth inhibition %
BT-549 = experiment: NCI-60 one-dose screen; details: Homo sapiens; BT-549, Breast Cancer panel; single dose 10^−5 M; read-out: Growth inhibition %
ACHN = experiment: NCI-60 one-dose screen; details: Homo sapiens, Renal Cancer panel, single dose 10^−5 M, read-out: Growth inhibition %
NCI-H522 = experiment: NCI-60 one-dose screen; details: Homo sapiens; NCI-H522, Non-small cell lung panel; single dose 10^−5 M; read-out: Growth inhibition %
786-0 = experiment: NCI-60 one-dose screen; details: Homo sapiens; 786-0, Renal Cancer panel; single dose 10^−5 M; read-out: Growth inhibition %
HCT-15 = experiment: NCI-60 one-dose screen; details: Homo sapiens; HCT-15, Colon Cancer panel; single dose 10^−5 M; read-out: Growth inhibition %
HL-60(TB) = experiment: NCI-60 one-dose screen; details: Homo sapiens, Leukemia panel, single dose 10^−5 M, read-out: Growth inhibition %
T-47D = experiment: NCI-60 one-dose screen; details: Homo sapiens, T47D, Breast Cancer panel, single dose 10^−5 M, read-out: Growth inhibition %
SK-MEL-5 = experiment: NCI-60 one-dose screen; details: Homo sapiens; SK-MEL-5, Melanoma panel; single dose 10^−5 M; read-out: Growth inhibition %
NCI-H23 = experiment: NCI-60 one-dose screen; details: Homo sapiens; NCI-H23, Non-small cell lung panel; single dose 10^−5 M; read-out: Growth inhibition %
DU-145 = experiment: NCI-60 one-dose screen; details: Homo sapiens; DU-145, Prostate Cancer panel; single dose 10^−5 M; read-out: Growth inhibition %
SK-OV-3 = experiment: NCI-60 one-dose screen; details: Homo sapiens; SK-OV-3, Ovarian Cancer panel; single dose 10^−5 M; read-out: Growth inhibition %
OVCAR-5 = experiment: NCI-60 one-dose screen; details: Homo sapiens; OVCAR-5, Ovarian Cancer panel; single dose 10^−5 M; read-out: Growth inhibition %
SNB-75 = experiment: NCI-60 one-dose screen; details: Homo sapiens; SNB-75, CNS Cancer panel; single dose 10^−5 M; read-out: Growth inhibition %
EKVX = experiment: NCI-60 one-dose screen; details: Homo sapiens, Non-small cell lung panel, single dose 10^−5 M, read-out: Growth inhibition %
MDA-MB-435 = experiment: NCI-60 one-dose screen; details: Homo sapiens; MDA-MB-435, Melanoma panel; single dose 10^−5 M; read-out: Growth inhibition %
M14 = experiment: NCI-60 one-dose screen; details: Homo sapiens; M14, Melanoma panel; single dose 10^−5 M; read-out: Growth inhibition %
MCF7 = experiment: NCI-60 one-dose screen; details: Homo sapiens; MCF7, Breast Cancer panel; single dose 10^−5 M; read-out: Growth inhibition %
MOLT-4 = experiment: NCI-60 one-dose screen; details: Homo sapiens; MOLT-4, Leukemia panel; single dose 10^−5 M; read-out: Growth inhibition %
HOP-92 = experiment: NCI-60 one-dose screen; details: Homo sapiens; HOP-92, Non-small cell lung panel; single dose 10^−5 M; read-out: Growth inhibition %
PC-3 = experiment: NCI-60 one-dose screen; details: Homo sapiens; PC-3, Prostate Cancer panel; single dose 10^−5 M; read-out: Growth inhibition %
HT29 = experiment: NCI-60 one-dose screen; details: Homo sapiens, HT-29; HT29, Colon Cancer panel; single dose 10^−5 M; read-out: Growth inhibition %
NCI/ADR-RES = experiment: NCI-60 one-dose screen; details: Homo sapiens, Ovarian Cancer panel, single dose 10^−5 M, read-out: Growth inhibition %
CAKI-1 = experiment: NCI-60 one-dose screen; details: Homo sapiens; CAKI-1, Renal Cancer panel; single dose 10^−5 M; read-out: Growth inhibition %
A498 = experiment: NCI-60 one-dose screen; details: Homo sapiens; A498, Renal Cancer panel; single dose 10^−5 M; read-out: Growth inhibition %
SR = experiment: NCI-60 one-dose screen; details: Homo sapiens, Leukemia panel, single dose 10^−5 M, read-out: Growth inhibition %
SK-MEL-28 = experiment: NCI-60 one-dose screen; details: Homo sapiens; SK-MEL-28, Melanoma panel; single dose 10^−5 M; read-out: Growth inhibition %
OVCAR-4 = experiment: NCI-60 one-dose screen; details: Homo sapiens; OVCAR-4, Ovarian Cancer panel; single dose 10^−5 M; read-out: Growth inhibition %
[1] = tested on: panel of 60 human tumor cell lines; experiment: NCI 60-cell line one-dose screen (mean); details: mean of the 60 cell lines, single dose 10^−5 M, read-out: Mean % Growth Inhibition
Method in brief: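 Human tumour lines (NCI-60, 9 tissue origins) exposed to test compound at a fixed 10^−5 M; % inhibition determined by the NCI DTP.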

CCRF-CEM = experiment: NCI-60 one-dose screen; details: Homo sapiens, Leukemia panel, single dose 10^−5 M, read-out: Growth inhibition %

Cc1cccc(CNc2c3ccccc3nc3ccccc23)c1 [Compound 3, Acridin-9-yl-(3-methylbenzyl)-amine]
inhibition at 10 µM (IGROV1): 80.5%
inhibition at 10 µM (NCI-H460): 91.3%
inhibition at 10 µM (SF-295): 74.7%
inhibition at 10 µM (BT-549): 32.7%
inhibition at 10 µM (ACHN): 84.2%
inhibition at 10 µM (NCI-H522): 47.9%
inhibition at 10 µM (786-0): 75.8%
inhibition at 10 µM (HCT-15): 84.1%
inhibition at 10 µM (HL-60(TB)): 87.5%
inhibition at 10 µM (T-47D): 74.7%
inhibition at 10 µM (SK-MEL-5): 80.2%
inhibition at 10 µM (NCI-H23): 70.3%
inhibition at 10 µM (DU-145): 66.1%
inhibition at 10 µM (SK-OV-3): 54.7%
inhibition at 10 µM (OVCAR-5): 64.2%
inhibition at 10 µM (SNB-75): 63%
inhibition at 10 µM (EKVX): 55.5%
inhibition at 10 µM (MDA-MB-435): 70.9%
inhibition at 10 µM (M14): 77.2%
inhibition at 10 µM (MCF7): 93.8%
inhibition at 10 µM (MOLT-4): 97.7%
inhibition at 10 µM (HOP-92): 93%
inhibition at 10 µM (PC-3): 75.1%
inhibition at 10 µM (HT29): 94.8%
inhibition at 10 µM (NCI/ADR-RES): 74.3%
inhibition at 10 µM (CAKI-1): 82.3%
inhibition at 10 µM (A498): 102%
inhibition at 10 µM (SR): 103%
inhibition at 10 µM (SK-MEL-28): 41.2%
inhibition at 10 µM (OVCAR-4): 72.1%
inhibition at 10 µM [1]: 77.2%
inhibition at 10 µM (CCRF-CEM): 85.2%

Cc1ccc(CNc2c3ccccc3nc3ccccc23)cc1 [Compound 4, Acridin-9-yl-(4-methylbenzyl)-amine]
inhibition at 10 µM (IGROV1): 80.6%
inhibition at 10 µM (NCI-H460): 91.2%
inhibition at 10 µM (SF-295): 68.7%
inhibition at 10 µM (BT-549): 28.7%
inhibition at 10 µM (ACHN): 86%
inhibition at 10 µM (NCI-H522): 51%
inhibition at 10 µM (786-0): 74.6%
inhibition at 10 µM (HCT-15): 84.4%
inhibition at 10 µM (HL-60(TB)): 74.5%
inhibition at 10 µM (T-47D): 71.9%
inhibition at 10 µM (SK-MEL-5): 69.9%
inhibition at 10 µM (NCI-H23): 70.7%
inhibition at 10 µM (DU-145): 66.5%
inhibition at 10 µM (SK-OV-3): 53.1%
inhibition at 10 µM (OVCAR-5): 61.9%
inhibition at 10 µM (SNB-75): 58.3%
inhibition at 10 µM (EKVX): 62.1%
inhibition at 10 µM (MDA-MB-435): 68.8%
inhibition at 10 µM (M14): 72%
inhibition at 10 µM (MCF7): 91%
inhibition at 10 µM (MOLT-4): 95.7%
inhibition at 10 µM (HOP-92): 96.8%
inhibition at 10 µM (PC-3): 75.7%
inhibition at 10 µM (HT29): 89.7%
inhibition at 10 µM (NCI/ADR-RES): 73.9%
inhibition at 10 µM (CAKI-1): 81.4%
inhibition at 10 µM (A498): 92.4%
inhibition at 10 µM (SR): 101%
inhibition at 10 µM (SK-MEL-28): 40.5%
inhibition at 10 µM (OVCAR-4): 75.5%
inhibition at 10 µM [1]: 74.8%
inhibition at 10 µM (CCRF-CEM): 79.1%

COc1ccccc1CNc1c2ccccc2nc2ccccc12 [Compound 5, Acridin-9-yl-(2-methoxybenzyl)-amine]
inhibition at 10 µM (IGROV1): 73.7%
inhibition at 10 µM (NCI-H460): 89.8%
inhibition at 10 µM (SF-295): 62.6%
inhibition at 10 µM (BT-549): 23%
inhibition at 10 µM (ACHN): 77.3%
inhibition at 10 µM (NCI-H522): 37.6%
inhibition at 10 µM (786-0): 60.7%
inhibition at 10 µM (HCT-15): 74%
inhibition at 10 µM (HL-60(TB)): 55.2%
inhibition at 10 µM (T-47D): 53.8%
inhibition at 10 µM (SK-MEL-5): 40.8%
inhibition at 10 µM (NCI-H23): 69.1%
inhibition at 10 µM (DU-145): 49.5%
inhibition at 10 µM (SK-OV-3): 38.6%
inhibition at 10 µM (OVCAR-5): 50.2%
inhibition at 10 µM (SNB-75): 36.5%
inhibition at 10 µM (EKVX): 34.3%
inhibition at 10 µM (MDA-MB-435): 57.4%
inhibition at 10 µM (M14): 59.1%
inhibition at 10 µM (MCF7): 83.2%
inhibition at 10 µM (MOLT-4): 79.3%
inhibition at 10 µM (HOP-92): 81.8%
inhibition at 10 µM (PC-3): 56.8%
inhibition at 10 µM (HT29): 82.3%
inhibition at 10 µM (NCI/ADR-RES): 65.2%
inhibition at 10 µM (CAKI-1): 54.3%
inhibition at 10 µM (A498): 86.7%
inhibition at 10 µM (SR): 90.1%
inhibition at 10 µM (SK-MEL-28): 20%
inhibition at 10 µM (OVCAR-4): 57.8%
inhibition at 10 µM [1]: 60.8%
inhibition at 10 µM (CCRF-CEM): 62.5%

COc1cccc(CNc2c3ccccc3nc3ccccc23)c1 [Compound 6, Acridin-9-yl-(3-methoxybenzyl)-amine]
inhibition at 10 µM (IGROV1): 71.7%
inhibition at 10 µM (NCI-H460): 90%
inhibition at 10 µM (SF-295): 64%
inhibition at 10 µM (BT-549): 31.3%
inhibition at 10 µM (ACHN): 80.8%
inhibition at 10 µM (NCI-H522): 38.3%
inhibition at 10 µM (786-0): 62.7%
inhibition at 10 µM (HCT-15): 75.6%
inhibition at 10 µM (HL-60(TB)): 59.1%
inhibition at 10 µM (T-47D): 54.1%
inhibition at 10 µM (SK-MEL-5): 42.4%
inhibition at 10 µM (NCI-H23): 62.7%
inhibition at 10 µM (DU-145): 46.7%
inhibition at 10 µM (SK-OV-3): 45.3%
inhibition at 10 µM (OVCAR-5): 54.1%
inhibition at 10 µM (SNB-75): 43.1%
inhibition at 10 µM (EKVX): 48.2%
inhibition at 10 µM (MDA-MB-435): 57%
inhibition at 10 µM (M14): 64.8%
inhibition at 10 µM (MCF7): 85.4%
inhibition at 10 µM (MOLT-4): 93.6%
inhibition at 10 µM (HOP-92): 74.5%
inhibition at 10 µM (PC-3): 61.1%
inhibition at 10 µM (HT29): 81.3%
inhibition at 10 µM (NCI/ADR-RES): 62.5%
inhibition at 10 µM (CAKI-1): 64.3%
inhibition at 10 µM (A498): 96.3%
inhibition at 10 µM (SR): 91.6%
inhibition at 10 µM (SK-MEL-28): 18.8%
inhibition at 10 µM (OVCAR-4): 56.4%
inhibition at 10 µM [1]: 63.1%
inhibition at 10 µM (CCRF-CEM): 69.8%

COc1ccc(CNc2c3ccccc3nc3ccccc23)cc1 [Compound 7, Acridin-9-yl-(4-methoxybenzyl)-amine]
inhibition at 10 µM (IGROV1): 72.8%
inhibition at 10 µM (NCI-H460): 90.3%
inhibition at 10 µM (SF-295): 60.9%
inhibition at 10 µM (BT-549): 19.9%
inhibition at 10 µM (ACHN): 81.2%
inhibition at 10 µM (NCI-H522): 47%
inhibition at 10 µM (786-0): 67.6%
inhibition at 10 µM (HCT-15): 78%
inhibition at 10 µM (HL-60(TB)): 57%
inhibition at 10 µM (T-47D): 55.1%
inhibition at 10 µM (SK-MEL-5): 37.8%
inhibition at 10 µM (NCI-H23): 61.2%
inhibition at 10 µM (DU-145): 52%
inhibition at 10 µM (SK-OV-3): 46.2%
inhibition at 10 µM (OVCAR-5): 53.6%
inhibition at 10 µM (SNB-75): 38.2%
inhibition at 10 µM (EKVX): 50.3%
inhibition at 10 µM (MDA-MB-435): 59.8%
inhibition at 10 µM (M14): 62.9%
inhibition at 10 µM (MCF7): 87.4%
inhibition at 10 µM (MOLT-4): 90.6%
inhibition at 10 µM (HOP-92): 75.5%
inhibition at 10 µM (PC-3): 66%
inhibition at 10 µM (HT29): 80.7%
inhibition at 10 µM (NCI/ADR-RES): 61.2%
inhibition at 10 µM (CAKI-1): 70.7%
inhibition at 10 µM (A498): 90%
inhibition at 10 µM (SR): 93%
inhibition at 10 µM (SK-MEL-28): 20.4%
inhibition at 10 µM (OVCAR-4): 59.7%
inhibition at 10 µM [1]: 63.2%
inhibition at 10 µM (CCRF-CEM): 61%

From publication PMC9866191, “Novel 9-Benzylaminoacridine Derivatives as Dual Inhibitors of Phosphodiesterase 5 and Topoisomerase II for the Treatment of Colon Cancer” (Molecules, 2023)
